{
  "source": "patent US20220091133A1",
  "about": "“METHODS AND ASSAYS FOR IMMUNE PHENOTYPING” (Washington University, priority 2020, published 2022)",
  "key": {"[1]": {"system": "PBMCs (T cell IFN-γ production)", "test": "PBMC ELISpot, CD3/CD28-stimulated IFN-γ production (Example 2)", "assay_type": "cell-based, human", "procedure": "(§1) Fresh whole blood samples were processed within 90 min of collection as previously described (28). Briefly, blood was diluted in an equal volume of PBS and layered carefully on Ficoll Paque PLUS (GE Healthcare). The PBMC fraction was isolated following centrifugation at 500×g for 30 min at room temperature. The number of total PBMCs was determined with a Vi-CELL Viability Analyzer (Beckman Coulter, Brea, Calif.). Flow cytometry was performed on PBMC fraction for cell typing.\nInnate and adaptive immune function was assessed using ELISpot analysis by measurement of the production of IFN-γ and TNF-α in ex vivo-stimulated cells following overnight culture. […] PBMCs were plated into wells in quantities of 2.5×10^4 cells per well for IFN-γ and 2.5×10^3 cells per well for TNF-α. […]\n(§2) Samples were scanned, analyzed, and quality controlled for spot count, spot area, and TWI using a Cellular Technology series 6 ImmunoSpot Universal Analyzer with ImmunoSpot 7.0 professional software (Cellular Technology Analyzers, Shaker Heights, Ohio). […]\nThe number of cytokine-secreting cells present in each ELISpot well is referred to as spot-forming units (SFU) and is reported in two distinct ways. […] The number of lymphocytes in each well was determined based upon the absolute lymphocyte count as measured by the patients' complete blood count. […]"}, "[2]": {"system": "PBMCs (myeloid cell TNF-α production)", "test": "PBMC ELISpot, LPS-stimulated TNF-α production (Example 2)", "assay_type": "cell-based, human", "procedure": "as §1\nInnate and adaptive immune function was assessed using ELISpot analysis by measurement of the production of IFN-γ and TNF-α in ex vivo-stimulated cells following overnight culture. Capture Ab precoated 96-well polyvinylidene difluoride-backed strip plates were used for single color enzymatic assays (ImmunoSpot; Cellular Technology [CTL], Cleveland, Ohio) for detection of human IFN-γ and TNF-α. ELISpot culture procedure was followed as directed using instructions from the ELISpot kit. Samples were run in duplicate for each test condition. Plates were prepared with stimulant and were incubated at 37° C. and 5% CO2 for 30 min prior to plating cells. Identical conditions were prepared for comparison of whole blood assay to PBMC assay, and culture media alone was used as a negative control. Combination of 500 ng/ml of anti-CD3 (clone HIT3a; BioLegend) with 2.5 μg/ml of anti-CD28 (clone CD28.2; BioLegend) Abs were used to induce IFN-γ, and 2.5 ng/ml LPS (from Salmonella abortus equi S-form, ALX-581-009; Enzo Life Sciences, Farmingdale, N.Y.) was used to induce TNF-α wells. Total well volume for all samples was 200 μl. PBMCs were plated into wells in quantities of 2.5×10^4 cells per well for IFN-γ and 2.5×10^3 cells per well for TNF-α. […]\nas §2\nThe number of cytokine-secreting cells present in each ELISpot well is referred to as spot-forming units (SFU) and is reported in two distinct ways. […] The number of lymphocytes in each well was determined based upon the absolute lymphocyte count as measured by the patients' complete blood count. For ELISpot studies involving PBMCs, flow cytometry was performed on the PBMC fraction, and the number of lymphocytes, monocytes, and residual neutrophils were determined. […] Samples were acquired on FACScan (Becton Dickenson, Franklin Lakes, N.J.) with a five-color modification (CyTek Biosciences, Fremont, Calif.) and analyzed using FlowJo 10.2 (FlowJo, Ashland, Oreg.) as previously described (28). […]"}, "[3]": {"system": "invasive fungal soft tissue infection (Trichosporon asahii, Fusarium, Saksenaea)", "test": "IL-7 immunotherapy in a patient with intractable fungal wound sepsis (clinical course, lymphocyte count)", "assay_type": "in vivo, human", "procedure": "Twenty-four hours later, the dosage was increased to 10 μg/kg and continued every 3-4 days for 7 doses. […] As illustrated by serial pictures of the wound, the most notable change following initiation of IL-7 was to slow the progression of the invasive soft tissue necrosis (FIG. 28B, green arrows).\nIn addition to decreased infectious spread and fungal proliferation, with improved wound healing and healthier-appearing tissue margins, clinical indicators of severity of disease improved within days of IL-7 treatment initiation with improvement of the fever curve, tachycardia, and tachypnea (FIG. 30). Laboratory evidence of resolution of the fungal invasion included progressive decreases in total white blood cell count and increasing absolute lymphocyte counts (FIG. 28A). The patient's absolute lymphocyte count increased >6-fold from a low of 600 lymphocytes/μL to >4000 lymphocytes/μL (upper limit of normal for absolute lymphocyte counts is 3500). Of note, the increase in the patient's absolute lymphocyte count was likely due to both the effect of IL-7 in inducing lymphocyte proliferation and to the resolution of the fungal infection."}, "[4]": {"system": "T cells (IFN-γ production)", "test": "IFN-γ ELISPOT on patient PBMCs before and during IL-7 therapy (Example 3)", "assay_type": "in vivo, human", "settings": "anti-CD3/anti-CD28 ex vivo stimulation, before vs during IL-7 therapy", "procedure": "The effect of IL-7 in terms of improving the patient's T cell function was evaluated by an ex vivo stimulation assay using anti-CD3 and anti-CD28 antibodies (BioLegend, San Diego, Calif., USA) on an IFN-γ ELISPOT assay (Cellular Technologies Limited, Shaker Heights, Ohio, USA), which was performed as previously described."}, "[5]": {"system": "SARS-CoV-2-specific T cells", "test": "ELISpot, IFN-γ response to SARS-CoV-2 spike glycoprotein and nucleocapsid peptide pool (Example 5)", "assay_type": "in vivo, human", "settings": "before vs after IL-7 therapy"}, "SARS-CoV-2": {"system": "SARS-CoV-2", "test": "COVID-19-specific antibody levels (Example 5)", "assay_type": "in vivo, human", "settings": "critically ill COVID-19 patient"}, "[6]": {"system": "sepsis-induced lymphopenia", "settings": "clinical trial, reference 54; cited from earlier work"}, "lymphopenia in COVID-19": {"system": "lymphopenia in COVID-19", "settings": "preliminary studies, reference 24; cited from earlier work"}},
  "data": [
    {"substance": "IL-7: recombinant human IL-7, immunoadjuvant and potent T cell activator; R&D Systems ex vivo, RevImmune for patients", "values": [
      {"measurement": "effect of IL-7 on IFN-γ SFUs", "setting": "[1]; PBMC, healthy subjects and CINS patients", "value": "significantly increased"},
      {"measurement": "effect of IL-7 on T cell IFN-γ production", "setting": "[1]; PBMCs, septic patients, p<0.0001", "value": "restore T cell IFN-γ production"},
      {"measurement": "septic patients in whom IL-7 increased TNF-α production", "setting": "[2]; PBMC ELISpot, patients out of total", "value": "13/19"},
      {"measurement": "change in TNF-α SFUs with IL-7", "setting": "[2]; PBMC, CINS", "value": "significant increase"},
      {"measurement": "change in TNF-α SFUs with IL-7", "setting": "[2]; PBMCs, healthy subjects", "value": "no change"},
      {"measurement": "overall increase in TNF-α SFUs with IL-7", "setting": "[2]; PBMCs, septic patients, p<0.01", "value": 97, "unit": "%"},
      {"measurement": "tolerability of IL-7 test dose", "setting": "[3]; 3 μg/kg ideal body weight intramuscularly, day 59 postinjury", "value": "well tolerated"},
      {"measurement": "onset of significant improvement of clinical status after initiation of IL-7", "setting": "[3]; 10 μg/kg every 3-4 days for 7 doses after test dose", "value": "4 to 7", "unit": "days"},
      {"measurement": "definitive closure of open wounds", "setting": "[3]; after resolution of wound fungal infection, >700 cm^2", "value": "> 90", "unit": "%"},
      {"measurement": "absolute lymphocyte count reached", "setting": "[3]; from a low of 600 lymphocytes/μL, upper limit of normal 3500", "value": "> 4000", "unit": "lymphocytes/μL"},
      {"measurement": "increase of absolute lymphocyte count", "setting": "[3]; fungal wound sepsis patient on IL-7", "value": "> 6", "unit": "fold"},
      {"measurement": "increase in the proportion of activated, IFN-γ-producing T cells from baseline", "setting": "[4]", "value": 1.4, "unit": "fold"},
      {"measurement": "improvement in the number of SARS-CoV-2 spike protein and nucleocapsid specific T cells", "setting": "[5]", "value": "over 30 fold"},
      {"measurement": "Coronavirus disease immunoglobulin G/M/A", "setting": "SARS-CoV-2; Post IL-7, Day 12", "value": "High positive"},
      {"measurement": "Coronavirus disease immunoglobulin G/M/A", "setting": "SARS-CoV-2; Post IL-7, Day 21", "value": "High positive"},
      {"measurement": "effect on sepsis-induced lymphopenia", "setting": "[6]", "value": "reversed sepsis-induced lymphopenia"},
      {"measurement": "tolerability of IL-7 in patients with sepsis", "setting": "[6]", "value": "well tolerated"},
      {"measurement": "increase of ALCs in COVID-19 disease patients treated with IL-7", "setting": "lymphopenia in COVID-19", "value": "two- to three-fold"},
      {"measurement": "tolerability of IL-7 in COVID-19 disease patients", "setting": "lymphopenia in COVID-19", "value": "well tolerated"}
    ]}
  ]
}
